Eleven compounds from ChEMBL document CHEMBL1201862, “PubChem BioAssay data set” (2004) can be followed below.

Among the test systems are RXF 393; Malme-3M; 786-0; KM12; SK-OV-3; K562; BT-549; SF-295; NCI/ADR-RES; HCT-116; OVCAR-4; COLO 205; A549; MDA-N; M14; MOLT-4; TK-10; LOX IMVI; CCRF-CEM.
Holding throughout (experiment): DTP human tumour cell line panel, 48 h

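Exposure lasted 48 hours, with cells grown in 96-well plates and compounds tested at five concentrations. Here, GI50 denotes the concentration required for 50% inhibition of growth.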 Calls of active or inactive are those of the source. No stated cut-off is given here; in the data, active = GI50 up to about 1.1 µM and inactive = higher. Some results are limits rather than exact numbers.

As usually defined, the GI50 is the concentration giving 50% growth inhibition. Regarding `CN(C)C/C=C(/c1ccc(Br)cc1)c1cccnc1`, the GI50 was 30.6 µM (inactive) in the test with RXF 393; 20.2 µM (inactive) with Malme-3M; 94 µM (inactive) in the test on 786-0; 74.1 µM (inactive) in the test on KM12; 71.1 µM (inactive) in the test with SK-OV-3; 32.2 µM (inactive) with K562. Further, the GI50 was 79.4 µM (inactive) in the test with BT-549; 22.2 µM (inactive) with SF-295; 69.5 µM (inactive) with NCI/ADR-RES; 71 µM (inactive) in the test with HCT-116; > 100 µM (inactive) in the test with OVCAR-4; 16.6 µM (inactive) with COLO 205. Besides, the GI50 was 81.8 µM (inactive) in the test with A549; 38.3 µM (inactive) in the test on MDA-N; 20.2 µM (inactive) in the test on M14; 47.9 µM (inactive) in the test with MOLT-4; 65.9 µM (inactive) in the test on TK-10.

In the case of `Cn1c(COC(=O)Nc2ccccc2)c(COC(=O)Nc2ccccc2)c2ccc3cc(Cl)c(Cl)cc3c21`, the GI50 was 2.52 µM (inactive) in the test on LOX IMVI; 9.64 µM (inactive) with RXF 393; 1.74 µM (inactive) in the test on Malme-3M; 2.76 µM (inactive) in the test on 786-0; 10.2 µM (inactive) with KM12; 20.9 µM (inactive) in the test with SK-OV-3. For the same compound, the GI50 is 1.07 µM (active) in the test with K562; 2.58 µM (inactive) in the test on BT-549; 18.7 µM (inactive) in the test with SF-295; 16.4 µM (inactive) in the test with NCI/ADR-RES; 9.66 µM (inactive) in the test with HCT-116; 3.39 µM (inactive) in the test on COLO 205. In addition, the GI50 in the test on A549 is 23.3 µM (inactive); in the test on MDA-N it was 8.07 µM (inactive); in the test on M14, 7.71 µM (inactive); with MOLT-4 it was 1.1 µM (active); in the test with TK-10, 9.4 µM (inactive); with CCRF-CEM, 1.51 µM (inactive).

For the compound `Cc1ccc(/N=N/C(=N/NC(=O)c2ccccc2)c2ccc(N(CCC#N)CCC#N)cc2C)cc1`, the GI50 in the test with RXF 393 is 22.8 µM (inactive); in the test on Malme-3M, 43.5 µM (inactive); in the test on 786-0, 33.3 µM (inactive); in the test on KM12, 29.3 µM (inactive); in the test on SK-OV-3, 60.3 µM (inactive); in the test on K562, 8.05 µM (inactive). For the same compound, the GI50 with BT-549 was 48.3 µM (inactive); in the test on SF-295 it was 21.7 µM (inactive); in the test on NCI/ADR-RES, > 100 µM (inactive); in the test with HCT-116, 29.3 µM (inactive); in the test on OVCAR-4, 99.8 µM (inactive); in the test with COLO 205, 35.2 µM (inactive). Moreover, the GI50 in the test with A549 is 34.3 µM (inactive); with MDA-N it was 3.97 µM (inactive); with M14, 78.2 µM (inactive); with MOLT-4, 61.1 µM (inactive); in the test on TK-10, > 100 µM (inactive); with CCRF-CEM, 30.3 µM (inactive).

For the compound `CCN(CC)CCN(C(=O)C(C)(C)C)c1ccccc1N`, the GI50 in the test with RXF 393, with Malme-3M, with 786-0, with KM12, in the test on SK-OV-3 and in the test with K562 was > 100 µM (inactive) each time. Moreover, the GI50 in the test with BT-549, in the test on SF-295, with NCI/ADR-RES, in the test with HCT-116, with OVCAR-4 and in the test with A549 was > 100 µM (inactive) in each case. Further, the GI50 in the test on MDA-N, in the test with M14, with MOLT-4, in the test on TK-10 and in the test with CCRF-CEM was > 100 µM (inactive) in each case.

`Cc1nc(-c2cc3cc(Cl)ccc3oc2=O)cc2c1c(=O)oc1ccc(Cl)cc12`: the GI50 in the test with LOX IMVI, with RXF 393, in the test with 786-0, with KM12, in the test with SK-OV-3 and with K562 was > 100 µM (inactive) throughout. In addition, the GI50 with BT-549, with SF-295, in the test with NCI/ADR-RES, in the test on HCT-116, in the test on COLO 205 and in the test with A549 was > 100 µM (inactive) in each case. Besides, the GI50 with MDA-N, with M14, with MOLT-4, in the test on TK-10 and with CCRF-CEM was > 100 µM (inactive) in each case.

As to `CO[C@@H](c1ccccc1)[C@H](O)[C@@](O)(c1ccccc1)P(=O)(OC)OC`, the GI50 in the test on LOX IMVI was > 100 µM (inactive); with RXF 393 it was > 100 µM (inactive); in the test with Malme-3M it was 36.6 µM (inactive); with 786-0 it was > 100 µM (inactive); with KM12 it was 28.4 µM (inactive); with SK-OV-3, > 100 µM (inactive). In addition, the GI50 in the test on K562, with BT-549, with SF-295, in the test on NCI/ADR-RES, in the test with HCT-116 and in the test with COLO 205 was > 100 µM (inactive) in each case. In addition, the GI50 in the test with A549, in the test on MDA-N, in the test with M14, in the test on MOLT-4, with TK-10 and with CCRF-CEM was > 100 µM (inactive) in each case.

In the case of `C[C@@H]1OC(=O)C[C@H]2CC(=O)N(CCc3cn(S(=O)(=O)C(F)(F)F)c4ccccc34)C[C@@H]21`, the GI50 in the test on RXF 393, in the test on Malme-3M, in the test on 786-0, with KM12, in the test on SK-OV-3 and in the test on K562 was > 100 µM (inactive) in each case. Further, the GI50 with BT-549, with SF-295, in the test with NCI/ADR-RES, in the test with HCT-116, in the test on OVCAR-4 and with COLO 205 was > 100 µM (inactive) each time. Moreover, the GI50 with A549, in the test with MDA-N, in the test on M14, in the test on MOLT-4, in the test with TK-10 and with CCRF-CEM was > 100 µM (inactive) each time.

With `CCOC(=O)c1c(NC(=O)c2ccccc2)sc2c1CCCC2`, the GI50 in the test with LOX IMVI is > 100 µM (inactive); with RXF 393 it was > 100 µM (inactive); in the test with Malme-3M, 78.9 µM (inactive); in the test with 786-0, > 100 µM (inactive); in the test with KM12, > 100 µM (inactive); in the test on SK-OV-3, > 100 µM (inactive). In addition, the GI50 with K562, in the test with BT-549, in the test on SF-295, in the test on NCI/ADR-RES, in the test with HCT-116 and in the test with COLO 205 was > 100 µM (inactive) throughout. The GI50 with MDA-N, with M14, in the test on MOLT-4, in the test with TK-10 and in the test on CCRF-CEM was > 100 µM (inactive) each time.

Turning to `N#CC(=N)c1ncn(-c2ccc(N)cc2)c1N`, the GI50 with LOX IMVI, in the test on Malme-3M, with 786-0, in the test with KM12, in the test on SK-OV-3 and in the test on K562 was > 100 µM (inactive) each time. Further, the GI50 with BT-549, with SF-295, with NCI/ADR-RES, with HCT-116, in the test on OVCAR-4 and with COLO 205 was > 100 µM (inactive) in each case. In addition, the GI50 in the test on A549, with MDA-N, in the test on M14, in the test on MOLT-4, with TK-10 and in the test on CCRF-CEM was > 100 µM (inactive) throughout.

Consider `CCOC(=O)[C@@H]1C[C@@H]1c1ccc(O)c(O)c1`, for which the GI50 in the test on RXF 393 is 21.1 µM (inactive); in the test with Malme-3M it was 49.2 µM (inactive); in the test with 786-0, 16.1 µM (inactive); with KM12 it was 26 µM (inactive); in the test on SK-OV-3, 44.8 µM (inactive); with K562, 13.8 µM (inactive). In addition, the GI50 in the test on BT-549 is 19.7 µM (inactive); in the test on SF-295, 59.7 µM (inactive); with NCI/ADR-RES, 46.6 µM (inactive); in the test with HCT-116, 16.3 µM (inactive); in the test with COLO 205 it was 27.4 µM (inactive); in the test with A549 it was 29.4 µM (inactive). The GI50 with MDA-N was 17.1 µM (inactive); with M14, 11 µM (inactive); in the test with MOLT-4 it was 6.18 µM (inactive); in the test with TK-10, > 100 µM (inactive).

Regarding `O=C(Nn1c(-c2cccs2)nc2ccc(I)cc2c1=O)c1ccccc1`, the GI50 in the test on LOX IMVI is 21.4 µM (inactive); with RXF 393, 35.4 µM (inactive); in the test with 786-0, 43.2 µM (inactive); in the test with KM12, 27.9 µM (inactive); in the test with BT-549 it was 16.4 µM (inactive); with SF-295, 26.9 µM (inactive). Further, the GI50 in the test on NCI/ADR-RES is 31.8 µM (inactive); in the test on HCT-116, 35.3 µM (inactive); in the test with OVCAR-4 it was 23 µM (inactive); in the test with COLO 205, 30.7 µM (inactive); in the test with A549 it was 18.8 µM (inactive); in the test with MDA-N, 43.9 µM (inactive). The GI50 was 36.3 µM (inactive) in the test on M14, 41.3 µM (inactive) in the test on MOLT-4 and 30.3 µM (inactive) in the test with TK-10.
